Target: T1, PD-1/PD-L1 (Homo sapiens, UniProt Q9NZQ7)
T1 construct: made in house; host or cells: HEK293T
Assay: PD-1/PD-L1 Homogenous Time-Resolved Fluorescence (HTRF) binding assay
Conditions: PD-L1-His 10 nM, PD-1-Ig 20 nM; value given as range class; read-out: Range or IC50
Procedure, shortened: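 Read-out is time-resolved FRET between europium cryptate-labelled anti-Ig (1 nM final) and APC-labelled anti-His (20 nM final), both dispensed onto the binding mix. Assay buffer: dPBS containing 0.1% bovine serum albumin and 0.05% Tween-20.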

T1 sequence (Q9NZQ7 with tags, fused parts or gaps): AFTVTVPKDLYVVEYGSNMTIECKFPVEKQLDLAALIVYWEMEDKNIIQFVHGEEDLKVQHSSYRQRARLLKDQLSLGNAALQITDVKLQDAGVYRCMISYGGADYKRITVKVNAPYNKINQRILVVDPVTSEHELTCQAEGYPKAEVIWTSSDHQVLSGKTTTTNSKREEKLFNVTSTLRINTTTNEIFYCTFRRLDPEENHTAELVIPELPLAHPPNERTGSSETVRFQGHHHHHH

Structure (SMILES) | IC50 [nM]
COC(=O)[C@@H]1C[C@@H](O)CN1CCCOc1cccc(-c2cccc(COc3cc(OCc4cncc(S(C)(=O)=O)c4)c(CN4CCCC[C@H]4C(=O)O)cc3Cl)c2C)c1Cl [Example 1069, (S)-1-(5-chloro-4-((2′-chloro-3′-(3-((2S,4R)-4-hydroxy-2-(methoxycarbonyl)pyrrolidin-1-yl)propoxy)-2-methyl-[1,1′-biphenyl]-3-yl)methoxy)-2-((5-(methylsulfonyl)pyridin-3-yl)methoxy)benzyl)piperidine-2-carboxylic Acid] | 0.21 to 10
Cc1c(COc2cc(OCc3cncc(S(C)(=O)=O)c3)c(CN[C@](C)(CO)C(=O)O)cc2Cl)cccc1-c1cccc(OCCCN2CC(O)C(C(=O)O)C2)c1C (stereo partly drawn) [Example 1075, 1-(3-((3′-((4-((((R)-2-carboxy-1-hydroxypropan-2-yl)amino)methyl)-2-chloro-5-((5-(methylsulfonyl)pyridin-3-yl)methoxy)phenoxy)methyl)-2,2′-dimethyl-[1,1′-biphenyl]-3-yl)oxy)propyl)-4-hydroxypyrrolidine-3-carboxylic Acid] | 0.21 to 10
Cc1c(OCCCN2CC[C@@H](O)C2)cccc1-c1c(Cl)ccc(COc2cc(OCc3cncc(C#N)c3)c(CNC(C)(CO)CO)cc2Cl)c1Cl [Example 2093, 5-((4-chloro-5-((2,6-dichloro-3′-(3-((R)-3-hydroxypyrrolidin-1-yl)propoxy)-2′-methyl-[1,1′-biphenyl]-3-yl)methoxy)-2-(((1,3-dihydroxy-2-methylpropan-2-yl)amino)methyl)phenoxy)methyl)nicotinonitrile] | 0.21 to 10
C[C@](CO)(NCc1cc(Cl)c(OCc2cccc(-c3cccc(OCCCN4CCCCC4)c3Cl)c2Cl)cc1OCc1cncc(C#N)c1)C(=O)O [Example 2058, (R)-2-((5-chloro-2-((5-cyanopyridin-3-yl)methoxy)-4-((2,2′-dichloro-3′-(3-(piperidin-1-yl)propoxy)-[1,1′-biphenyl]-3-yl)methoxy)benzyl)amino)-3-hydroxy-2-methylpropanoic Acid] | 0.21 to 10
Cc1c(COc2cc(OCc3cncc(C(N)=O)c3)c(CN[C@](C)(CO)C(=O)O)cc2Cl)cccc1-c1cccc(OCCCN2CCC(CO)(C(=O)O)CC2)c1C [Example 1113, (R)-1-(3-((3′-((5-((5-carbamoylpyridin-3-yl)methoxy)-4-(((2-carboxy-1-hydroxypropan-2-yl)amino)methyl)-2-chlorophenoxy)methyl)-2,2′-dimethyl-[1,1′-biphenyl]-3-yl)oxy)propyl)-4-(hydroxymethyl)piperidine-4-carboxylic Acid] | 0.21 to 10
Cc1c(COc2cc(OCc3cncc(S(C)(=O)=O)c3)c(CNC(C)(CO)C(=O)O)cc2Cl)cccc1-c1cccc(OCCCN2CCC(CO)(C(=O)O)C2)c1Cl (single isomer, unassigned) [Example 1063] | 0.21 to 10
Cc1c(COc2cc(OCc3cncc(C#N)c3)c(CN[C@H](CO)C(=O)O)cc2Cl)cccc1-c1cccc(OCCCN2CCC(O)CC2)c1C [Example 1060, (R)-2-((5-chloro-2-((5-cyanopyridin-3-yl)methoxy)-4-((3′-(3-(4-hydroxypiperidin-1-yl)propoxy)-2,2′-dimethyl-[1,1′-biphenyl]-3-yl)methoxy)benzyl)amino)-3-hydroxypropanoic Acid] | 0.21 to 10
Cc1c(COc2cc(OCc3cncc(C(N)=O)c3)c(CN[C@](C)(CO)C(=O)O)cc2Cl)cccc1-c1cccc(OCCCN2CCC(O)(C(=O)O)CC2)c1C [Example 1094, (R)-1-(3-((3′-((5-((5-carbamoylpyridin-3-yl)methoxy)-4-(((2-carboxy-1-hydroxypropan-2-yl)amino)methyl)-2-chlorophenoxy)methyl)-2,2′-dimethyl-[1,1′-biphenyl]-3-yl)oxy)propyl)-4-hydroxypiperidine-4-carboxylic Acid] | 0.21 to 10
Cc1c(COc2cc(OCc3cncc(S(C)(=O)=O)c3)c(CN3CCCC[C@H]3C(=O)O)cc2Cl)cccc1-c1cccc(OCCCN2CCC(CO)(C(=O)O)C2)c1Cl (single isomer, unassigned) [Example 1065] | 0.21 to 10
Cc1c(COc2cc(OCc3cncc(C#N)c3)c(CN[C@@](C)(CO)C(=O)O)cc2Cl)cccc1-c1cccc(OCCCNC[C@H](O)CO)c1Cl [Example 2006, (S)-2-((5-chloro-4-((2′-chloro-3′-(3-(((S)-2,3-dihydroxypropyl)amino)propoxy)-2-methyl-[1,1′-biphenyl]-3-yl)methoxy)-2-((5-cyanopyridin-3-yl)methoxy)benzyl)amino)-3-hydroxy-2-methylpropanoic Acid] | 0.21 to 10

Next, values leading:

IC50 [nM] | Structure (SMILES)
0.21 to 10 | Cc1c(COCCN2CC[C@@H](O)C2)cccc1-c1cccc(COc2cc(OCc3cncc(C#N)c3)c(CN(C)C3(C(=O)O)CC3)cc2Cl)c1C [Example 4129, (R)-1-((5-chloro-2-((5-cyanopyridin-3-yl)methoxy)-4-((3′-((2-(3-hydroxypyrrolidin-1-yl)ethoxy)methyl)-2,2′-dimethyl-[1,1′-biphenyl]-3-yl)methoxy)benzyl)(methyl)amino)cyclopropane-1-carboxylic Acid]
0.21 to 10 | Cc1c(COc2cc(OCc3cncc(C#N)c3)c(CN(CC3CC3)C(CO)CO)cc2Cl)cccc1-c1cccc(OCCCN2CC[C@@H](O)C2)c1Cl [Example 2113, (R)-5-((4-chloro-5-((2′-chloro-3′-(3-(3-hydroxypyrrolidin-1-yl)propoxy)-2-methyl-[1,1′-biphenyl]-3-yl)methoxy)-2-(((cyclopropylmethyl)(1,3-dihydroxypropan-2-yl)amino)methyl)phenoxy)methyl)nicotinonitrile]
0.21 to 10 | Cc1c(COc2cc(OCc3cncc(C#N)c3)c(CN(C)CC(O)CO)cc2Cl)cccc1-c1cccc(OCCCN(C)CC(O)CO)c1C (stereo not drawn) [Example 2254, 5-((4-chloro-2-(((2,3-dihydroxypropyl)(methyl)amino)methyl)-5-((3-(3-((2,3-dihydroxypropyl) (methyl)amino)propoxy)-2,2′-dimethylbiphenyl-3-yl)methoxy)phenoxy)methyl)nicotinonitrile]
10 to 100 | Cc1c(COc2cc(OCc3cncc(C#N)c3)c(CN3CCCC[C@H]3C(=O)O)cc2Cl)cccc1-c1cccc(C(=O)NCCN2CCS(=O)(=O)CC2)c1C [Example 4004, (S)-1-(5-chloro-2-((5-cyanopyridin-3-yl)methoxy)-4-((3′-((2-(1,1-dioxidothiomorpholino)ethyl)carbamoyl)-2,2′-dimethyl-[1,1′-biphenyl]-3-yl)methoxy)benzyl)piperidine-2-carboxylic Acid]
0.21 to 10 | Cc1cc(OCc2cccc(-c3cccc(OCCCN4CC[C@@H](O)C4)c3C)c2C)cc(OCc2cncc(C#N)c2)c1CN[C@@](C)(CO)C(=O)O [Example 4091, (S)-2-((2-((5-cyanopyridin-3-yl)methoxy)-4-((3′-(3-((R)-3-hydroxypyrrolidin-1-yl)propoxy)-2,2′-dimethyl-[1,1′-biphenyl]-3-yl)methoxy)-6-methylbenzyl)amino)-3-hydroxy-2-methylpropanoic Acid]
2010 to 10000 | Cc1c(COc2cc(OCc3cncc(C#N)c3)c(CN[C@@](C)(CO)C(=O)O)cc2Cl)cccc1-c1cc(OCCCN2CC[C@@H](O)C2)cc(OCCCN2CC[C@@H](O)C2)c1 [Example 3064, (S)-2-((4-((3′,5′-bis(3-((R)-3-hydroxypyrrolidin-1-yl)propoxy)-2-methyl-[1,1′-biphenyl]-3-yl)methoxy)-5-chloro-2-((5-cyanopyridin-3-yl)methoxy)benzyl)amino)-3-hydroxy-2-methylpropanoic Acid]
0.21 to 10 | CC(=O)NC1CCN(CCCOc2cccc(-c3cccc(COc4cc(OCc5cncc(C#N)c5)c(CN5CCCC[C@H]5C(=O)O)cc4Cl)c3C)c2C)C1 (stereo partly drawn) [Example 2215, (2S)-1-(4-((3′-(3-(3-acetamidopyrrolidin-1-yl)propoxy)-2,2′-dimethylbiphenyl-3-yl)methoxy)-5-chloro-2-((5-cyanopyridin-3-yl)methoxy)benzyl)piperidine-2-carboxylic Acid]
0.21 to 10 | Cc1c(COc2cc(OCc3ccc(F)c(F)c3)c(CN3CCCC[C@H]3C(=O)O)cc2Cl)cccc1-c1cccc(OCCCN2CC[C@@H](O)C2)c1C [Example 4512, (S)-1-(5-chloro-2-((3,4-difluorobenzyl)oxy)-4-((3′-(3-((R)-3-hydroxypyrrolidin-1-yl)propoxy)-2,2′-dimethyl-[1,1′-biphenyl]-3-yl)methoxy)benzyl)piperidine-2-carboxylic Acid]
0.21 to 10 | Cc1c(COc2cc(OCc3cncc(C#N)c3)c(CN3CCCCC3CO)cc2Cl)cccc1-c1cccc(OCCCN2CC[C@@H](O)C2)c1C (stereo partly drawn) [Example 2334, 5-((4-chloro-2-((2-(hydroxymethyl)piperidin-1-yl)methyl)-5-((3′-(3-((R)-3-hydroxypyrrolidin-1-yl)propoxy)-2,2′-dimethyl-[1,1′-biphenyl]-3-yl)methoxy)phenoxy)methyl)nicotinonitrile]
2010 to 10000 | CNC(=O)c1cccc(-c2cccc(COc3cc(OCc4cncc(C#N)c4)c(CN4C[C@@H](O)C[C@H]4C(=O)O)cc3Cl)c2C)c1C [Example 4014, (2S,4S)-1-(5-chloro-2-((5-cyanopyridin-3-yl)methoxy)-4-((2,2′-dimethyl-3′-(methylcarbamoyl)-[1,1′-biphenyl]-3-yl)methoxy)benzyl)-4-hydroxypyrrolidine-2-carboxylic Acid]
0.21 to 10 | Cc1c(COc2cc(OCc3cncc(C#N)c3)c(CNC(CO)(CO)CO)cc2Cl)cccc1-c1cccc(OCCCN2CCC(F)(F)C2)c1C [Example 4118, 5-((4-chloro-5-((3′-(3-(3,3-difluoropyrrolidin-1-yl)propoxy)-2,2′-dimethyl-[1,1′-biphenyl]-3-yl)methoxy)-2-(((1,3-dihydroxy-2-(hydroxymethyl)propan-2-yl)amino)methyl)phenoxy)methyl)nicotinonitrile]

Source: US10745382B2 (BRISTOL-MYERS SQUIBB COMPANY, priority 2015, dated 2020)
